Laboratory results from US5854039A, “Transformation of pichia methanolica” (ZymoGenetics, Inc., priority 1997, dated 1998).

Tested on: P. methanolica cells (strain CBS6515), UV-mutagenized
Assay: Nystatin enrichment for auxotrophic mutants, titering for colony forming units
Format: cell-based, Pichia methanolica
Details: 1 mg nystatin added to remainder of 500 ml culture in minimal broth, one additional hour with shaking, nystatin-treated versus control cells
Experimental: Large-scale mutagenesis was then carried out using a 2-second UV exposure to provide about 20% killing. Cells were plated at approximately 10^4 cells/plate onto eight YEPD plates that were supplemented with 100 mg/L each of uracil, adenine, and leucine, which were added to supplement the growth of potential auxotrophs having the cognate deficiencies. Following UV exposure the plates were wrapped in foil and incubated overnight at 30° C. The following day the colonies on the plates (~10^5 total) were resuspended in water and washed once with water. An amount of cell suspension sufficient to give an OD600 of 0.1-0.2 was used to inoculate 500 ml of minimal broth made with yeast nitrogen base without amino acids or ammonia, supplemented with 1% glucose and 400 μg/L biotin. The culture was placed in a 2.8 L baffled Bell flask and shaken vigorously overnight at 30° C. The following day the cells had reached an OD600 of ~1.0-2.0. The cells were pelleted and resuspended in 500 ml of minimal broth supplemented with 5 g/L ammonium sulfate. The cell suspension was placed in a 2.8 L baffled Bell flask and shaken vigorously at 30° C. for 6 hours. 50 ml of the culture was set aside in a 250-ml flask as a control, and to the remainder of the culture was added 1 mg nystatin to select for auxotrophic mutants (Snow, Nature 211:206-207, 1966). […]

C[C@@H]1[C@H](O)[C@@H](C)/C=C/C=C/CC/C=C/C=C/C=C/C=C/C(O[C@H]2O[C@H](C)[C@@H](O)[C@H](N)[C@@H]2O)CC2O[C@](O)(CC(O)C(O)CCC(O)CC(O)CC(O)CC(=O)O[C@H]1C)CC(O)C2C(=O)O (stereo partly shown) [nystatin]
decrease in the number of viable cells (factor): 10^4
